Measured values from patent US7138361B2, “Herbicidal heterocycles” (E. I. du Pont de Nemours and Company, priority 2000, dated 2006).

Experiments:
Experiment in all cases: Test C preemergence
Assay type in all cases: in vivo
Nightshade = system: Nightshade
Sunflower [1] = system: Sunflower
[2] = system: Surinam grass (Brachiaria decumbens)
In short: (§1)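 Visual injury scores of 0–100, with 100 meaning complete control, were given relative to controls after 12–14 days in the greenhouse. Treatments used a surfactant-containing non-phytotoxic solvent formulation, sprayed on seeded pots preemergence or on 1–4-leaf plants of 2–18 cm postemergence.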

[3] = system: bermudagrass (Cynodon dactylon)
In short: as §1

[4] = system: cocklebur (Xanthium strumarium)
In short: as §1

[5] = system: common ragweed (Ambrosia elatior)
In short: as §1

corn (Zea mays) = system: corn (Zea mays)
In short: as §1

[6] = system: crabgrass (Digitaria sanguinalis)
In short: as §1

[7] = system: giant foxtail (Setaria faberii)
In short: as §1

[8] = system: goosegrass (Eleusine indica)
In short: as §1

[9] = system: johnsongrass (Sorghum halepense)
In short: as §1

kochia (Kochia scoparia) = system: kochia (Kochia scoparia)
In short: as §1

[10] = system: lambsquarters (Chenopodium album)
In short: as §1

[11] = system: morningglory (Ipomoea hederacea)
In short: as §1

[12] = system: pigweed (Amaranthus retroflexus)
In short: as §1

soybean (Glycine max) = system: soybean (Glycine max)
In short: as §1

[13] = system: velvetleaf (Abutilon theophrasti)
In short: as §1

[14] = system: woolly cupgrass (Eriochloa villosa)
In short: as §1

[15] = system: yellow nutsedge (Cyperus esculentus)
In short: as §1

Sunflower [16] = conditions: Rate 125 g/ha, scale 0 to 100, 0 no effect, 100 complete control
[17] = Rate 62 g/ha, scale 0 to 100, 0 no effect, 100 complete control
[18] = Preemergence, Rate 500 g/ha, scale 0 to 100
[19] = preemergence, Rate 250 g/ha, visual evaluation after 12 to 14 days
[20] = preemergence, Rate 125 g/ha, scale 0 to 100, 0 no effect, 100 complete control

O=C1C(n2ccc(C3CCCCC3)n2)SCN1c1cccc(OC(F)(F)F)c1 (stereo not drawn) [Compound 50]
Plant response rating, Nightshade (Nightshade; [17]): 0 | Plant response rating, Nightshade (Nightshade; Rate 125 g/ha, scale 0 to 100, 0 no effect, 100 complete control): 0 | Plant response rating, Nightshade (Nightshade; Rate 500 g/ha, scale 0 to 100): 60 | Plant response rating, Sunflower (Sunflower [1]; [17]): 20 | Plant response rating, Sunflower (Sunflower [1]; Rate 500 g/ha, scale 0 to 100): 60 | Plant response rating, Surinam grass [2, 18]: 50 | Plant response rating, Surinam grass [2, 17]: 20 | Plant response rating (0 to 100), Surinam grass [2, 19]: 50 | Plant response rating, Surinam grass [2, 20]: 30 | Plant response rating, Bermudagrass [3, 18]: 100 | Plant response rating, Bermudagrass [3, 17]: 100 | Plant response rating (0 to 100 where 0 is no effect and 100 is complete control), Bermudagrass [3, 19]: 100 | Plant response rating, Bermudagrass [3, 20]: 100 | Plant response rating, Cocklebur [4, 18]: 0 | Plant response rating (0 to 100), Cocklebur [4, 19]: 0 | Plant response rating, Cocklebur [4, 20]: 0 | Plant response rating, Ragweed, Common [5, 18]: 40 | Plant response rating, Ragweed, Common [5, 17]: 20 | Plant response rating (0 to 100), Ragweed, Common [5, 19]: 40 | Plant response rating, Ragweed, Common [5, 20]: 30 | Plant response rating, Corn (corn (Zea mays); [18]): 0 | Plant response rating, Corn (corn (Zea mays); [17]): 0 | Plant response rating (0 to 100), Corn (corn (Zea mays); [19]): 0 | Plant response rating, Corn (corn (Zea mays); [20]): 0 | Plant response rating, Crabgrass [6, 18]: 100 | Plant response rating, Crabgrass [6, 17]: 100 | Plant response rating (0 to 100), Crabgrass [6, 19]: 100 | Plant response rating, Crabgrass [6, 20]: 100 | Plant response rating, Foxtail, Giant [7, 18]: 100 | Plant response rating, Foxtail, Giant [7, 17]: 60 | Plant response rating (0 to 100), Foxtail, Giant [7, 19]: 20 | Plant response rating, Foxtail, Giant [7, 20]: 0 | Plant response rating, Goosegrass [8, 18]: 100 | Plant response rating, Goosegrass [8, 17]: 80 | Plant response rating (0 to 100), Goosegrass [8, 19]: 100 | Plant response rating, Goosegrass [8, 20]: 90 | Plant response rating, Johnsongrass [9, 18]: 90 | Plant response rating, Johnsongrass [9, 17]: 0 | Plant response rating (0 to 100), Johnsongrass [9, 19]: 70 | Plant response rating, Johnsongrass [9, 20]: 40 | Plant response rating, Kochia (kochia (Kochia scoparia); [18]): 20 | Plant response rating, Kochia (kochia (Kochia scoparia); [17]): 0 | Plant response rating (0 to 100), Kochia (kochia (Kochia scoparia); [19]): 0 | Plant response rating, Kochia (kochia (Kochia scoparia); [20]): 0 | Plant response rating, Lambsquarters [10, 18]: 70 | Plant response rating, Lambsquarters [10, 17]: 20 | Plant response rating (0 to 100), Lambsquarters [10, 19]: 70 | Plant response rating, Lambsquarters [10, 20]: 50 | Plant response rating, Morningglory [11, 18]: 30 | Plant response rating, Morningglory [11, 17]: 20 | Plant response rating (0 to 100), Morningglory [11, 19]: 30 | Plant response rating, Morningglory [11, 20]: 30 | Plant response rating, Pigweed [12, 18]: 90 | Plant response rating, Pigweed [12, 17]: 30 | Plant response rating (0 to 100), Pigweed [12, 19]: 20 | Plant response rating, Pigweed [12, 20]: 20 | Plant response rating, Soybean (soybean (Glycine max); [18]): 40 | Plant response rating (0 to 100), Soybean (soybean (Glycine max); [19]): 0 | Plant response rating, Soybean (soybean (Glycine max); [20]): 0 | Plant response rating, Velvetleaf [13, 18]: 0 | Plant response rating, Velvetleaf [13, 17]: 0 | Plant response rating (0 to 100), Velvetleaf [13, 19]: 0 | Plant response rating, Velvetleaf [13, 20]: 0 | Plant response rating, Cupgrass, Woolly [14, 18]: 90 | Plant response rating, Cupgrass, Woolly [14, 17]: 20 | Plant response rating (0 to 100), Cupgrass, Woolly [14, 19]: 90 | Plant response rating, Cupgrass, Woolly [14, 20]: 20 | Plant response rating, Nutsedge [15, 18]: 70 | Plant response rating, Nutsedge [15, 17]: 0 | Plant response rating (0 to 100), Nutsedge [15, 19]: 0 | Plant response rating, Nutsedge [15, 20]: 0 | Plant response rating, Sunflower (Sunflower [16]): 30
